In patent US10647723B2, “Thiochromene type compound and use thereof” (SOGANG UNIVERSITY RESEARCH FOUNDATION, priority 2015, dated 2020):

Assays:
[1] = Solubility comparison: cloud point on adding water to a DMSO solution; type: physicochemical; settings: upon dissolution in DMSO
[2] = UV-Vis absorption spectrum; type: physicochemical; settings: compared to compounds 1 and 2; FIG. 5

With `Cn1c2c(c3ccccc31)C(SCCC(=O)ON1C(=O)CCC1=O)Sc1ccccc1-2` (stereo not drawn) [3a, 2,5-Dioxopyrrolidin-1-yl 3-((11-methyl-6,11-dihydrothiochromeno[4,3-b]indol-6-yl)thio)propanoate] the “water added at which a cloud point formed” value [1] was 30%, the melting point was 90 to 96 °C (dec.) and the “absorbance at 355 nm” value [2] was “high absorbance”.

For `CCn1c2c(c3ccccc31)C(SCCC(=O)ON1C(=O)CCC1=O)Sc1ccccc1-2` (stereo not drawn) [3b, 2,5-Dioxopyrrolidin-1-yl 3-((11-ethyl-6,11-dihydrothiochromeno[4,3-b]indol-6-yl)thio)propanoate], the melting point was 82 to 87 °C (dec.).

For `CCCn1c2c(c3ccccc31)C(SCCC(=O)ON1C(=O)CCC1=O)Sc1ccccc1-2` (stereo not drawn) [3c, 2,5-Dioxopyrrolidin-1-yl 3-((11-propyl-6,11-dihydrothiochromeno[4,3-b]indol-6-yl)thio)propanoate], the melting point was 77 to 82 °C (dec.).

For `CCCCn1c2c(c3ccccc31)C(SCCC(=O)ON1C(=O)CCC1=O)Sc1ccccc1-2` (stereo not drawn) [3d, 2,5-Dioxopyrrolidin-1-yl 3-((11-butyl-6, 11-dihydrothiochromeno[4,3-b]indol-6-yl)thio)propanoate], the melting point was 76 to 81 °C (dec.).
